Data taken from ChEMBL document CHEMBL4265943, “Design and synthesis of potent dual inhibitors of JAK2 and HDAC based on fusing the pharmacophores of XL019 and vorinostat” (Eur J Med Chem, 2018).
Calls of active or inactive are those of the source. No cut-off for these calls is given here.

Tests used:
[1] = system: HCT-116; assay: Antiproliferative activity against human HCT116 cells after 72 hrs by MTT assay; assay type: functional, cell-based; details: HCT-116, 72 h
[2] = system: PC-3; assay: Antiproliferative activity against human PC3 cells after 72 hrs by MTT assay; assay type: functional, cell-based; details: PC-3, 72 h
[3] = system: HEL 92.1.7; assay: cells; assay type: functional, cell-based; details: Homo sapiens, HEL 92.1.7, 72 h
Description: Antiproliferative activity against human HEL 92.1.7 cells after 72 hrs by MTT assay

[4] = system: MCF7; assay: Antiproliferative activity against human MCF7 cells after 72 hrs by MTT assay; assay type: functional, cell-based; details: MCF7, 72 h
[5] = organism: Homo sapiens; assay: Selectivity ratio of IC50 for HDAC1 (unknown origin) to IC50 for HDAC6 (unknown origin)
[6] = system: MDA-MB-231; assay: Antiproliferative activity against human MDA-MB-231 cells after 72 hrs by MTT assay; assay type: functional, cell-based; details: MDA-MB-231, 72 h
[7] = target: T1, Tyrosine-protein kinase JAK2 (Homo sapiens, UniProt O60674); assay: Inhibition of human JAK2 using poly(Glu:Tyr)(4:1) as substrate preincubated for 20 mins followed by [gamma33P]ATP addition measured after 120 mins by ion exchange filter paper method
T1 sequence (O60674 whole entry): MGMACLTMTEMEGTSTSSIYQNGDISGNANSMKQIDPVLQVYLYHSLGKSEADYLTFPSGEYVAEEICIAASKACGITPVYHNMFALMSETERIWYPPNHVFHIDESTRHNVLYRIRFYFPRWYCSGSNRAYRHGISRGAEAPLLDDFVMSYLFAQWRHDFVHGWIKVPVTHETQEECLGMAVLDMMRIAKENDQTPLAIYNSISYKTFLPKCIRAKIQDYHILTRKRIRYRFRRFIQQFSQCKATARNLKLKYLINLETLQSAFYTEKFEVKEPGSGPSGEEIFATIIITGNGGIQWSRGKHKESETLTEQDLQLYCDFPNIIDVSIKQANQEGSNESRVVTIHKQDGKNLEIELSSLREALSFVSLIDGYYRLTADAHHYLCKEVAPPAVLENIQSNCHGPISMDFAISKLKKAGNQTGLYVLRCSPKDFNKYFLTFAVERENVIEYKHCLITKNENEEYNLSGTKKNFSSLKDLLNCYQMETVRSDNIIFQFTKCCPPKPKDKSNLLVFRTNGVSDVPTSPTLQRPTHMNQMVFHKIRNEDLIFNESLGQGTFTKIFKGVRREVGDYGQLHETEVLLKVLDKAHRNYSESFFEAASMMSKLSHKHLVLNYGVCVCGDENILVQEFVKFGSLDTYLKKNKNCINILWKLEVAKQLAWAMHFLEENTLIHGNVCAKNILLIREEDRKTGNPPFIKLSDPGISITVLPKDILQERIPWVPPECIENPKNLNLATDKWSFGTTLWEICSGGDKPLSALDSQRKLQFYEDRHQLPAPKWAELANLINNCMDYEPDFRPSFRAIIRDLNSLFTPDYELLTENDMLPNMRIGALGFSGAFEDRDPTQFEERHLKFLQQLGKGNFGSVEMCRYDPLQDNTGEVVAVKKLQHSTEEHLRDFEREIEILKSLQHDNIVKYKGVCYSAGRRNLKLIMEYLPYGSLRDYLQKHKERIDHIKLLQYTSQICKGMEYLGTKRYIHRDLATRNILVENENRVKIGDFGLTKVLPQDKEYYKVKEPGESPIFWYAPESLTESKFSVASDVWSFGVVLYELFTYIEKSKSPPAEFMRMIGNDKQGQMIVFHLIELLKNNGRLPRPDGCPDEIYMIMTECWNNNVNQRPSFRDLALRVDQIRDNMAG

[8] = target: Histone deacetylase 1 (Homo sapiens, UniProt Q13547); assay: Inhibition of HDAC1 (unknown origin) using Arg-His-Lys-Lys(Ac) as substrate preincubated with enzyme followed by substrate addition for 2 hrs and measured for 1.5 hrs at 15 mins time interval by fluorescence assay
Histone deacetylase 1, sequence (Q13547 whole entry): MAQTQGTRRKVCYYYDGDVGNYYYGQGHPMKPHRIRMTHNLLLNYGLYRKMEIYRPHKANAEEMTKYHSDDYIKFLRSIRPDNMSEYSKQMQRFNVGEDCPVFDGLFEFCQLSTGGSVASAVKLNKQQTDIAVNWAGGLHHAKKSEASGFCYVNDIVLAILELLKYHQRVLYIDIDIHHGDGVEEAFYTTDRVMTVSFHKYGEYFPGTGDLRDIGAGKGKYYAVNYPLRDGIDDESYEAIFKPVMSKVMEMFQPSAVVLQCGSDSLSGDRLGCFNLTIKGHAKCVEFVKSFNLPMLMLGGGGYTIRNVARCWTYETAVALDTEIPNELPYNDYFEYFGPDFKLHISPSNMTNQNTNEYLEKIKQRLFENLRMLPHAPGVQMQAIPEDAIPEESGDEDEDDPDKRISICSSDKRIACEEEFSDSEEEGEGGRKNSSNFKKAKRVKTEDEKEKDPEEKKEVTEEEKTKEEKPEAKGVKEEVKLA

[9] = target: T2, Protein deacetylase HDAC6 (Homo sapiens, UniProt Q9UBN7); assay: Inhibition of HDAC6 (unknown origin) using Arg-His-Lys-Lys(Ac) as substrate preincubated with enzyme followed by substrate addition for 2 hrs and measured for 1.5 hrs at 15 mins time interval by fluorescence assay
T2 sequence (Q9UBN7 whole entry): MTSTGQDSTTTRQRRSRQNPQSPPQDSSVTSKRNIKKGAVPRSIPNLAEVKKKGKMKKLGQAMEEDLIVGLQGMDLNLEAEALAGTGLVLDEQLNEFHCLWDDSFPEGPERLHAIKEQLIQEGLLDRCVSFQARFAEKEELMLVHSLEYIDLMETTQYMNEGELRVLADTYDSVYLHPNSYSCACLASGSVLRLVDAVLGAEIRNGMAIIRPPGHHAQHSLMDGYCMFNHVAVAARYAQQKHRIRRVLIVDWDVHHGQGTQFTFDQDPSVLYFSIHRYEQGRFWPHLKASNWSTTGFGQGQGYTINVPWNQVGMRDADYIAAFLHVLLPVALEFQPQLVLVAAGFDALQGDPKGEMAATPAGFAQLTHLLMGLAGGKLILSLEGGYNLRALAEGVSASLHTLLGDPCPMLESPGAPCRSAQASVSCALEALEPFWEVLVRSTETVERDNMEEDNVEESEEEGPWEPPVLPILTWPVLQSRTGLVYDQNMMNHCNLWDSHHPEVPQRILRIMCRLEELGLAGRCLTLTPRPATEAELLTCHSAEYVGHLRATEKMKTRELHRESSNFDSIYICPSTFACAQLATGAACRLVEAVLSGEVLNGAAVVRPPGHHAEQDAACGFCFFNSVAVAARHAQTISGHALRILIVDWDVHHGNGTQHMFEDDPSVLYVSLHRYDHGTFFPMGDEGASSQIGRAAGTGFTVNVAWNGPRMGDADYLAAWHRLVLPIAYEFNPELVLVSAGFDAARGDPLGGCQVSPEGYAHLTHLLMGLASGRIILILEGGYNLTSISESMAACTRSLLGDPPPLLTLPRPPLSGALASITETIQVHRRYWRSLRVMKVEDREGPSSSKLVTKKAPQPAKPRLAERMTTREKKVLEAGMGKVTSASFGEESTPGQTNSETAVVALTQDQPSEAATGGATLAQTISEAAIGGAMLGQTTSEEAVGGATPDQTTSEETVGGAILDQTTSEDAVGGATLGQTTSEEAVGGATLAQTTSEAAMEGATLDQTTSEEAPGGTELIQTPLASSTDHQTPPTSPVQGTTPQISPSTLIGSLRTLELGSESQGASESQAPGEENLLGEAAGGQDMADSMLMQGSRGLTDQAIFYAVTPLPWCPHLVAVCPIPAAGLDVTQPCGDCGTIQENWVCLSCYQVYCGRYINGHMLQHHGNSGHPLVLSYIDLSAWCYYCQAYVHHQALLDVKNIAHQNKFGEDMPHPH

[10] = system: Jurkat; assay: Antiproliferative activity against human Jurkat cells after 72 hrs by MTT assay; assay type: functional, cell-based
[11] = Selectivity index, ratio of CC50 for mouse TAMH cells to IC50 for human PC3 cells; assay type: toxicity; details: TAMH cells (CC50) and PC3 cells (IC50)
[12] = system: MCF7; assay: Induction of apoptosis in human MCF7 cells assessed as late apoptotic cells at 1.64 uM after 72 hrs by Annexin V-FITC/propidium iodide staining based flow cytometry (reference value: 1.59%); assay type: functional
[13] = system: MCF7; assay: Induction of apoptosis in human MCF7 cells assessed as early apoptotic cells at 1.64 uM after 72 hrs by Annexin V-FITC/propidium iodide staining based flow cytometry (reference value: 1.19%); assay type: functional
[14] = system: HCT-116; assay: Induction of apoptosis in human HCT116 cells assessed as necrotic cells at 0.99 uM after 72 hrs by Annexin V-FITC/propidium iodide staining based flow cytometry (reference value: 1.54%); assay type: functional
[15] = Antiproliferative activity against human AC10 cells after 72 hrs by MTT assay; assay type: cell-based
[16] = system: MDA-MB-231; assay: Induction of apoptosis in human MDA-MB-231 cells assessed as late apoptotic cells at 0.85 uM after 72 hrs by Annexin V-FITC/propidium iodide staining based flow cytometry (reference value: 2.12%); assay type: functional
[17] = system: MDA-MB-231; assay: Induction of apoptosis in human MDA-MB-231 cells assessed as necrotic cells at 0.85 uM after 72 hrs by Annexin V-FITC/propidium iodide staining based flow cytometry (reference value: 5.45%); assay type: functional
[18] = system: HCT-116; assay: Induction of apoptosis in human HCT116 cells assessed as late apoptotic cells at 0.99 uM after 72 hrs by Annexin V-FITC/propidium iodide staining based flow cytometry (reference value: 1.45%); assay type: functional
[19] = Selectivity index, ratio of CC50 for human AC10 cells to IC50 for human MCF7 cells; assay type: toxicity; details: AC10 cells (CC50) and MCF7 cells (IC50)
[20] = system: PC-3; assay: Induction of apoptosis in human PC3 cells assessed as late apoptotic cells at 1.07 uM after 72 hrs by Annexin V-FITC/propidium iodide staining based flow cytometry (reference value: 1.01%); assay type: functional
[21] = Selectivity index, ratio of CC50 for human AC10 cells to IC50 for human MDA-MB-231 cells; assay type: toxicity; details: AC10 cells (CC50) and MDA-MB-231 cells (IC50)
[22] = Selectivity index, ratio of CC50 for human AC10 cells to IC50 for human PC3 cells; assay type: toxicity; details: AC10 cells (CC50) and PC3 cells (IC50)
[23] = system: MCF7; assay: Induction of apoptosis in human MCF7 cells assessed as live cells at 1.64 uM after 72 hrs by Annexin V-FITC/propidium iodide staining based flow cytometry (reference value: 95.05%); assay type: functional
[24] = Selectivity index, ratio of CC50 for mouse TAMH cells to IC50 for human MCF7 cells; assay type: toxicity; details: TAMH cells (CC50) and MCF7 cells (IC50)
[25] = system: MCF7; assay: Induction of apoptosis in human MCF7 cells assessed as necrotic cells at 1.64 uM after 72 hrs by Annexin V-FITC/propidium iodide staining based flow cytometry (reference value: 2.17%); assay type: functional
[26] = system: PC-3; assay: Induction of apoptosis in human PC3 cells assessed as early apoptotic cells at 1.07 uM after 72 hrs by Annexin V-FITC/propidium iodide staining based flow cytometry (reference value: […]%); assay type: functional
[27] = system: HCT-116; assay: Induction of apoptosis in human HCT116 cells assessed as live cells at 0.99 uM after 72 hrs by Annexin V-FITC/propidium iodide staining based flow cytometry (reference value: 95.7%); assay type: functional
[28] = Selectivity index, ratio of CC50 for mouse TAMH cells to IC50 for human MDA-MB-231 cells; assay type: toxicity; details: TAMH cells (CC50) and MDA-MB-231 cells (IC50)
[29] = Antiproliferative activity against mouse TAMH cells after 72 hrs by MTT assay; assay type: cell-based
[30] = system: PC-3; assay: Induction of apoptosis in human PC3 cells assessed as necrotic cells at 1.07 uM after 72 hrs by Annexin V-FITC/propidium iodide staining based flow cytometry (reference value: 0.66%); assay type: functional
[31] = system: MDA-MB-231; assay: Induction of apoptosis in human MDA-MB-231 cells assessed as early apoptotic cells at 0.85 uM after 72 hrs by Annexin V-FITC/propidium iodide staining based flow cytometry (reference value: 1.45%); assay type: functional
[32] = system: MDA-MB-231; assay: Induction of apoptosis in human MDA-MB-231 cells assessed as live cells at 0.85 uM after 72 hrs by Annexin V-FITC/propidium iodide staining based flow cytometry (reference value: 90.98%); assay type: functional
[33] = system: HCT-116; assay: Induction of apoptosis in human HCT116 cells assessed as early apoptotic cells at 0.99 uM after 72 hrs by Annexin V-FITC/propidium iodide staining based flow cytometry (reference value: 1.31%); assay type: functional
[34] = system: PC-3; assay: Induction of apoptosis in human PC3 cells assessed as live cells at 1.07 uM after 72 hrs by Annexin V-FITC/propidium iodide staining based flow cytometry (reference value: 96.36%); assay type: functional
[35] = system: KMS-12-BM; assay: Antiproliferative activity against human KMS-12-BM cells after 72 hrs by MTT assay; assay type: functional, cell-based
[36] = target: T1, Tyrosine-protein kinase JAK2; assay: Inhibition of JAK2 in human HeLa cells assessed as reduction in STAT5 phosphorylation at 15 to 20 uM after 1 hr by immunoblot analysis; assay type: cell-based
[37] = target: Histone deacetylase 1/2/3 (Homo sapiens) (UniProt Q13547+O15379+Q92769); assay: Inhibition of HDAC1/HDAC2/HDAC3 in human HEL 92.1.7 cells assessed as increase in acetylated […] level at 1 uM after 1 hr by immunoblot analysis; assay type: cell-based
[38] = target: T1, Tyrosine-protein kinase JAK2; assay: Inhibition of JAK2 in human HeLa cells assessed as increase in JAK2 phosphorylation at 15 to 20 uM after 1 hr by immunoblot analysis; assay type: cell-based
[39] = target: T3, Protein deacetylase HDAC6 (Homo sapiens) (UniProt Q9UBN7); assay: Inhibition of HDAC6 in human HEL 92.1.7 cells assessed as increase in acetylated tubulin level at 1 uM after 1 hr by immunoblot analysis; assay type: cell-based
T3 sequence (whole entry): T2 sequence (Q9UBN7 whole entry)

[40] = Selectivity index, ratio of CC50 for human AC10 cells to IC50 for human KMS-12-BM cells; assay type: toxicity; details: AC10 cells (CC50) and KMS-12-BM cells (IC50)
[41] = Selectivity index, ratio of CC50 for mouse TAMH cells to IC50 for human KMS-12-BM cells; assay type: toxicity; details: TAMH cells (CC50) and KMS-12-BM cells (IC50)
[42] = Selectivity index, ratio of CC50 for human AC10 cells to IC50 for human XG6 cells; assay type: toxicity; details: AC10 cells (CC50) and XG6 cells (IC50)
[43] = Selectivity index, ratio of CC50 for mouse TAMH cells to IC50 for human XG6 cells; assay type: toxicity; details: TAMH cells (CC50) and XG6 cells (IC50)
[44] = Antiproliferative activity against human XG6 cells after 72 hrs by MTT assay; assay type: functional, cell-based; details: XG6, 72 h

Structure (SMILES): CC(=O)Nc1ccc(-c2ccnc(Nc3cccc(NC(=O)CCCCC(=O)NO)c3)n2)cc1
- IC50 [1]: 34100 nM
- IC50 [2]: 18600 nM
- IC50 [3]: > 10000 nM
- IC50 [4]: 26700 nM
- Ratio IC50 [5]: 100
- IC50 [6]: 14600 nM
- IC50 [7]: 2.6 nM
- IC50 [8]: 384 nM
- IC50 [9]: 4.6 nM
- IC50 [10]: > 10000 nM

Structure (SMILES): CN1CCN(c2ccc(Nc3nccc(-c4ccc(NC(=O)CCCCCCC(=O)NO)cc4)n3)cc2)CC1
- IC50 [1]: 990 nM
- selectivity ratio [11]: 5.33
- Activity [12]: 3.37%
- Activity [13]: 6.54%
- Activity [14]: 4.69%
- CC50 at 72 h [15]: 3310 nM
- IC50 [2]: 1020 nM
- Activity [16]: 40.56%
- Activity [17]: 6.84%
- Activity [18]: 6.43%
- selectivity ratio [19]: 2.06
- Activity [20]: 19.83%
- selectivity ratio [21]: 3.64
- selectivity ratio [22]: 3.25
- IC50 [4]: 1610 nM
- IC50 [6]: 910 nM
- Activity [23]: 88.21%
- selectivity ratio [24]: 3.38
- Activity [25]: 1.88%
- Activity [26]: 73.28%
- Activity [27]: 83.01%
- selectivity ratio [28]: 5.98
- IC50 [7]: 4.6 nM
- CC50 at 72 h [29]: 5440 nM
- Activity [30]: 1.54%
- Activity [31]: 39.4%
- Activity [32]: 13.2%
- Activity [33]: 5.87%
- Activity [34]: 5.35%
- IC50 [8]: 77 nM
- IC50 [9]: 3.1 nM

Structure (SMILES): CC(=O)Nc1ccc(-c2ccnc(Nc3ccc(NC(=O)CCCCCCC(=O)NO)cc3)n2)cc1
- IC50 [35]: 1160 nM
- IC50 [1]: 1970 nM
- inhibition [36]: Active
- CC50 at 72 h [15]: 19500 nM
- IC50 [2]: 3840 nM
- IC50 [3]: 2530 nM
- inhibition [37]: Active
- IC50 [4]: 1090 nM
- inhibition [38]: Active
- Ratio IC50 [5]: > 7000
- IC50 [6]: 1540 nM
- inhibition [39]: Active
- selectivity ratio [40]: 16.8
- selectivity ratio [41]: 10.8
- IC50 [7]: 0.9 nM
- selectivity ratio [42]: 6.16
- CC50 at 72 h [29]: 12500 nM
- selectivity ratio [43]: 3.95
- IC50 [44]: 3170 nM
- IC50 [8]: 774 nM
- IC50 [9]: 0.1 nM
